Laboratory results reported in patent publication US20190255086A1, “Compositions and Methods for Treating an Infection” (CMPD Licensing, LLC, priority 2015, published 2019).

Experiments:
[1] = tested on: Peptostreptococcus; test: Expected efficacy of anti-bacterial agents against various bacteria (Tables 5 and 6); settings: Gram: pos
[2] = tested on: Acinetobacter baumannii; test: as above; settings: Gram: neg
[3] = tested on: Moraxella catarrhalis; test: as above; settings: Gram: neg
[4] = tested on: Chlamydia pneumoniae; test: as above; settings: Gram: n/a
[5] = tested on: Enterococcus faecium; test: as above; settings: Gram: pos
[6] = tested on: Acinetobacter calcoaceticus; test: as above; settings: Gram: neg
[7] = tested on: Methicillin resistant staph aureus (MRSA); test: as above; settings: Gram: pos
[8] = tested on: Escherichia coli; test: as above; settings: Gram: neg
[9] = tested on: Haemophilus ducreyi; test: as above; settings: Gram: neg
[10] = tested on: Proteus vulgaris; test: as above; settings: Gram: neg
[11] = tested on: Shigella dysenteriae; test: as above; settings: Gram: neg
[12] = tested on: Enterobacter sakazakii; test: as above; settings: Gram: neg
[13] = tested on: Streptococcus pneumoniae; test: as above; settings: Gram: pos
[14] = tested on: Chlamydia trachomatis; test: as above; settings: Gram: n/a
[15] = tested on: Campylobacter jejuni; test: as above; settings: Gram: neg
[16] = tested on: Viridans group streptococci; test: as above; settings: Gram: pos
[17] = tested on: Diphtheroids; test: as above; settings: Gram: pos
[18] = tested on: Providencia rettgeri; test: as above; settings: Gram: neg
[19] = tested on: Legionella pneumophila; settings: expected efficacy; Legionella pneumophila; Gram: neg
[20] = tested on: Enterococcus faecalis; test: Expected efficacy of anti-bacterial agents against various bacteria (Tables 5 and 6); settings: Gram: pos
[21] = tested on: Clostridium perfringens; settings: expected efficacy; Clostridium perfringens; Gram: anaer
[22] = tested on: Haemophilus parainfluenzae; test: Expected efficacy of anti-bacterial agents against various bacteria (Tables 5 and 6); settings: Gram: neg
[23] = tested on: Yersinia pestis; settings: expected efficacy; Yersinia pestis; Gram: neg
[24] = tested on: Neisseria meningitidis; test: Expected efficacy of anti-bacterial agents against various bacteria (Tables 5 and 6); settings: Gram: neg
[25] = tested on: Klebsiella oxytoca; test: as above; settings: Gram: neg
[26] = tested on: Corynebacterium jeikeium; test: as above; settings: Gram: pos
[27] = tested on: Citrobacter diversus; test: as above; settings: Gram: neg
[28] = tested on: Serratia marcescens; test: as above; settings: Gram: neg
[29] = tested on: Staphylococcus aureus (MSSA); test: as above; settings: Gram: pos
[30] = tested on: Shigella flexneri; test: as above; settings: Gram: neg
[31] = tested on: Enterobacter cloacae; test: as above; settings: Gram: neg
[32] = tested on: Citrobacter freundii; test: as above; settings: Gram: neg
[33] = tested on: Bordetella pertussis; test: as above; settings: Gram: neg
[34] = tested on: Klebsiella pneumoniae; test: as above; settings: Gram: neg
[35] = tested on: Clostridium difficile; test: as above; settings: Gram: anaer
[36] = tested on: Streptococcus pyogenes; test: as above; settings: Gram: pos
[37] = tested on: Streptococcus agalactiae; test: as above; settings: Gram: pos
[38] = tested on: Klebsiella (Calymmatobacterium) granulomatis; test: as above; settings: Gram: neg
[39] = tested on: Chlamydia psittaci; settings: expected efficacy; Chlamydia psittaci; Gram: n/a
[40] = tested on: Enterobacter aerogenes; test: Expected efficacy of anti-bacterial agents against various bacteria (Tables 5 and 6); settings: Gram: neg
[41] = tested on: Corynebacterium urealyticum; test: as above; settings: Gram: pos
[42] = tested on: Proteus mirabilis; test: as above; settings: Gram: neg
[43] = tested on: Shigella boydii; test: as above; settings: Gram: neg
[44] = tested on: Rickettsiae; settings: expected efficacy; Rickettsiae; Gram: neg
[45] = tested on: Bacteroides fragilis; test: Expected efficacy of anti-bacterial agents against various bacteria (Tables 5 and 6); settings: Gram: anaer
[46] = tested on: Salmonella typhi; test: as above; settings: Gram: neg
[47] = tested on: Morganella morganii; test: as above; settings: Gram: neg
[48] = tested on: Vibrio cholerae; test: as above; settings: Gram: neg
[49] = tested on: Providencia stuartii; test: as above; settings: Gram: neg
[50] = tested on: Haemophilus influenzae; test: as above; settings: Gram: neg
[51] = tested on: Shigella sonnei; test: as above; settings: Gram: neg
[52] = tested on: Francisella tularensis; settings: expected efficacy; Francisella tularensis; Gram: neg
[53] = tested on: Staphylococcus epidermidis; test: Expected efficacy of anti-bacterial agents against various bacteria (Tables 5 and 6); settings: Gram: pos
[54] = tested on: Mycoplasma pneumoniae; test: as above; settings: Gram: n/a
[55] = tested on: Neisseria gonorrhoeae; test: as above; settings: Gram: neg
[56] = tested on: Acinetobacter lwoffii; test: as above; settings: Gram: neg
[57] = tested on: Pseudomonas aeruginosa; test: as above; settings: Gram: neg

Measured: Efficacy of various antibiotic agents

CO/N=C(\C(=O)N[C@@H]1C(=O)N2C(C(=O)O)=C(CSc3nc(=O)c(=O)[nH]n3C)CS[C@H]12)c1csc(N)n1 [Ceftriaxone]
yes: [1] | [3] | [8] | [9] | [10] | [11] | [12] | [13] | [16] | [18] | [21] | [22] | [24] | [25] | [27] | [28] | [29] | [30] | [31] | [32] | [34] | [36] | [37] | [38] | [40] | [42] | [43] | [45] | [46] | [47] | [49] | [50] | [51] | [53] | [55]
no: [2] | [4] | [5] | [6] | [7] | [14] | [15] | [17] | [19] | [20] | [23] | [26] | [33] | [35] | [39] | [41] | [44] | [48] | [52] | [54] | [56] | [57]
